Data published in patent US4870097A, “Pharmaceutical use of derivatives of tryptophan” (priority 1984, dated 1989).

Experiments:
[1] = system: analgesic activity of morphine; test: Tail Flick Test: increase in the analgesic effect of morphine; assay type: in vivo, rats; conditions: for M(10'-90') average percentage variation: mean 10'-90'
How it was run: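 Male non-fasted rats, 150-200 g; heat source (75 °C) on tail, latency to tail movement timed, 8 s cut-off. Measured before and 10, 20, 30, 45, 60, 90 min after analgesic dosing; percentage variation per animal, averaged over groups of five.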

[2] = system: endogenous opiates; test: Tail Flick Test after transcutaneous shock: analgesic activity of endogenous opiates; assay type: in vivo, rats; conditions: for Average latency, 5': 5' after electric shock; for Average latency, 10': 10' after electric shock; for Average latency, 15': 15' after electric shock
Procedure: Influence of several of the compounds of the invention on the analgesic activity of endogenous opiates released under transcutaneous shock in rats measured by the Tail Flick Test
The method is that described by Lewis et al. (J. Neurosc. 1, 358 (1981). Male rats having a weight of about 200 g, which have not been fasting, are used.
The animals are stressed by the application to the front leg of a 60 Hz-2.5 mA current in pulses of a duration of one second every five seconds for 20 minutes.
This stress regime causes the release of endogenous opiates.

[3] = system: analgesic activity of DALA; test: Tail Flick test: increase in the analgesic activity of DALA (i.c.v.); assay type: in vivo, rats; set-up: analgesic activity (Tail Flick), 10' / analgesic activity (Tail Flick), 20' / analgesic activity (Tail Flick), 30' / analgesic activity (Tail Flick), 45' / analgesic activity (Tail Flick), 60' / analgesic activity (Tail Flick), AVERAGE: scale not given here; conditions: for analgesic activity (Tail Flick), AVERAGE: average 10'-60'
Procedure: In order to check one of the possible mechanisms for the action of the compounds of the invention, that is, their possible inhibition of the enzymatic degradation of endogenous enkephalins, the following experiment was carried out:
A cannula was implanted in the right lateral ventricle of male rats having a weight of 150-200 g (groups of five animals were used) in order to allow the intracerebroventricular (i.c.v.) administration of drugs according to the method of Noble et al (Life Science 6, (1970) 281-291).
The animals were subsequently treated (i.c.v.) with 3 μg of D-ala-methionine-enkephalinamide (DALA) immediately after an injection (i.c.v.) of the compounds under study at the doses given in Table 4. Analgesia was tested for by the Tail Flick method already mentioned, at the times

[4] = system: tolerance induced by morphine; test: Antagonism to the development of tolerance to repeated administration of morphine HCl (tail flick); assay type: in vivo, rats; conditions: for percentage variation in the latency time, day 0 / percentage variation in the latency time, day 1 / percentage variation in the latency time, day 2 / percentage variation in the latency time, day 3 / percentage variation in the latency time, day 4 / percentage variation in the latency time, day 5 / percentage variation in the latency time, day 6 / percentage variation in the latency time, day 7: 3 mg/kg i.p. + morphine HCl 3 mg/kg i.p. (row Morphine: alone); for Area subtended (1) / regression line % Effect versus Day: 3 mg/kg + morphine (row Morphine: alone)
Procedure: Several of the compounds of the invention were examined to determine any capacity to antagonise the development of tolerance induced by morphine. Groups of six male rats having a weight of about 200-250 were used.
At intervals of 24 hours from the first treatment (time 0), each animal (except for the control group treated with a physiological solution) received 3 mg/kg of morphine hydrochloride i.p. together with 3 mg/kg i.p. of the compounds indicated (with the exception of the group treated solely with morphine).
The determination of the threshold for the pain stimulus was effected at 15°, 30', 45' and 60' intervals from the treatment by the "tail flick" test.

[5] = system: guinea pig gall bladder contracted with CCK-8; test: Anti-CCK activity on guinea pig gall bladders in vitro; assay type: biochemical; conditions: CCK-8 10 ng/ml, concentration antagonising 50% of contracting effect
How it was run: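 Longitudinal gall bladder strips in Krebs at 32° C, gassed with O2/CO2 95:5, were contracted with CCK-8 at 10 ng/ml and contractions recorded isometrically via force transducer. ED50 in mcg/ml is the compound concentration antagonising 50% of CCK contraction, derived by regression over at least three experiments.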

[6] = compound 10 mg/kg i.p. + morphine 2 mg/kg (row Morphine: alone), ± S.E.
[7] = compound 10 mg/kg i.p. + morphine 2 mg/kg (row Morphine: alone)

SMILES	percentage variation in the latency of the pain sensation, 10' [1, 6] [%]	percentage variation in the latency of the pain sensation, 20' [1, 6] [%]	percentage variation in the latency of the pain sensation, 45' [1, 6] [%]	percentage variation in the latency of the pain sensation, 60' [1, 6] [%]	percentage variation in the latency of the pain sensation, 90' [1, 6] [%]	M(10'-90') average percentage variation [1, 7] [%]	Potency ratio relative to morphine alone ([1]; rat, in vivo)	Average latency, 5' ([2]; 0.5 mg/kg i.v. + stress) [s]	Average latency, 5' ([2]; 2 mg/kg i.v. + stress) [s]	Average latency, 10' ([2]; 0.5 mg/kg i.v. + stress) [sec.]	Average latency, 10' ([2]; 2 mg/kg i.v. + stress) [sec.]	Average latency, 15' ([2]; 0.5 mg/kg i.v. + stress) [s]	Average latency, 15' ([2]; 2 mg/kg i.v. + stress) [s]	analgesic activity (Tail Flick), 10' ([3]; 10(D) + 0.001 mg/kg (ICV))	analgesic activity (Tail Flick), 20' ([3]; 10(D) + 0.001 mg/kg (ICV))	analgesic activity (Tail Flick), 30' ([3]; 10(D) + 0.001 mg/kg (ICV))	analgesic activity (Tail Flick), 45' ([3]; 10(D) + 0.001 mg/kg (ICV))	analgesic activity (Tail Flick), 60' ([3]; 10(D) + 0.001 mg/kg (ICV))	analgesic activity (Tail Flick), AVERAGE ([3]; 10(D) + 0.001 mg/kg (ICV))	analgesic activity (Tail Flick), 10' ([3]; 10(D) + 0.01 mg/kg (ICV))	further results
CCCCCCc1ccc(C(=O)N[C@@H](Cc2c[nH]c3ccccc23)C(=O)O)cc1 [Compound 26]	100.0 ± 0.0	87.6 ± 9.2	100.0 ± 0.0	100.0 ± 0.0	84.5 ± 9.8	96.3	3.2	6.62 ± 0.72	11.0 ± 0.65	6.1 ± 0.61	9.28 ± 0.78	5.52 ± 0.9	6.84 ± 0.73	62.44	73.94	67.94	40.38	34.06	55.75 ± 7.84	80.54	percentage variation in the latency of the pain sensation, 30' ([1]; 30', compound 10 mg/kg i.p. + morphine 2 mg/kg (row Morphine: alone), ± S.E.): 100.0 ± 0.0%; analgesic activity (Tail Flick), 20' ([3]; 10(D) + 0.01 mg/kg (ICV)): 82.66; analgesic activity (Tail Flick), 30' ([3]; 10(D) + 0.01 mg/kg (ICV)): 70.42; analgesic activity (Tail Flick), 45' ([3]; 10(D) + 0.01 mg/kg (ICV)): 45.9; analgesic activity (Tail Flick), 60' ([3]; 10(D) + 0.01 mg/kg (ICV)): 68.9; analgesic activity (Tail Flick), AVERAGE ([3]; 10(D) + 0.01 mg/kg (ICV)): 69.68 ± 6.53; percentage variation in the latency time, day 0 [4]: 74.14%; percentage variation in the latency time, day 1 [4]: 45.73%; percentage variation in the latency time, day 2 [4]: 59.5%; percentage variation in the latency time, day 3 [4]: 51.52%; percentage variation in the latency time, day 4 [4]: 43.40%; percentage variation in the latency time, day 5 [4]: 37.60%; percentage variation in the latency time, day 6 [4]: 21.43%; percentage variation in the latency time, day 7 [4]: 29.75%; Area subtended (1) ([4]; days 0-7): 366.7 Effect-Day; regression line % Effect versus Day ([4]; days 0-7): % Effect = - 6.02 Day + 66.5; Area 1 / Area Morphine ([4]; days 0-7, 3 mg/kg + morphine, ratio to morphine alone): 2.61; Anti CCK-8 activity, ED50 [5]: 152.1 µg/mL
O=C(N[C@@H](Cc1c[nH]c2ccccc12)C(=O)O)OC(c1ccccc1)c1ccccc1 [Compound 33]	100.0 ± 0.0	87.6 ± 12.4	97.0 ± 3.0	65.7 ± 21.4	58.1 ± 21.7	82.9	2.78	6.68 ± 0.53	9.92 ± 0.92	6.58 ± 0.46	8.1 ± 1.0	5.3 ± 0.56	6.51 ± 0.48	64.12	77.56	72.7	45.76	57.38	63.50 ± 5.63	81.48	percentage variation in the latency of the pain sensation, 30' ([1]; rat, in vivo): 89.2 ± 10.8; analgesic activity (Tail Flick), 20' ([3]; 10(D) + 0.01 mg/kg (ICV)): 100.00; analgesic activity (Tail Flick), 30' ([3]; 10(D) + 0.01 mg/kg (ICV)): 80.22; analgesic activity (Tail Flick), 45' ([3]; 10(D) + 0.01 mg/kg (ICV)): 59.24; analgesic activity (Tail Flick), 60' ([3]; 10(D) + 0.01 mg/kg (ICV)): 55.88; analgesic activity (Tail Flick), AVERAGE ([3]; 10(D) + 0.01 mg/kg (ICV)): 75.36 ± 8.08; percentage variation in the latency time, day 0 [4]: 50.12%; percentage variation in the latency time, day 1 [4]: 67.02%; percentage variation in the latency time, day 2 [4]: 51.47%; percentage variation in the latency time, day 3 [4]: 34.92%; percentage variation in the latency time, day 4 [4]: 67.3%; percentage variation in the latency time, day 5 [4]: 61.08%; percentage variation in the latency time, day 6 [4]: 20.02%; percentage variation in the latency time, day 7 [4]: 10.33%; Area subtended (1) ([4]; days 0-7): 382.1 Effect-Day; regression line % Effect versus Day ([4]; days 0-7): % Effect = - 5.38 Day + 64.12; Area 1 / Area Morphine ([4]; rat, in vivo, 3 mg/kg): 2.72; Anti CCK-8 activity, ED50 [5]: 76.3 µg/mL
